We go through 4 compounds from US20240043373A1, “COMPOSITIONS AND METHODS FOR TREATING AMYLOID-RELATED CONDITIONS” (The Regents of the University of California, priority 2020, published 2024).

Entries after “also recorded” stand apart in the source; their conditions may differ.

Test [1] relates to p-GSK3β (Ser 9). The experiment in a line: phospho GSK3β / total GSK3β western blot in SH-SY5Y cells. In kind it is cell-based, human. The settings on record: SH-SY5Y 100 k/well, 5 uM. An excerpt: FIG. 14B is a graph showing each blot normalized to actin levels.
FIG. 16C is a graph decpiting the normalized to actin levels and the ratio of (phosphor-GSK3β/Actin) to (Total-GSK3β/Actin) from the Western blots in FIGS. 16A & B, calculated by densitometry.

The subject of test [2] is sAPPα. The experiment in a line: sAPPα AlphaLISA in SH-SY5Y cells. In kind it is cell-based, human. Conditions: for sAPPα levels after 24 h: SH-SY5Y, after 24 h (FIG. 12B); for sAPPα in SH-SY5Y cells: SH-SY5Y 150 K/well, 1, 5, 10 and 50 μM, 24 hours, AlphaLISA. How it is done: Media (20 μL) was collected every 2 h for 24 h (plate was shaken prior to media collection to disburse sAPPα) from each treatment group.

In test [3] the test system is sAPPα. The experiment in a line: Primary HTS: sAPPα AlphaLISA in CHO-7W cells. The format is cell-based, Chinese Hamster. A general note: Bead proximity is the source of the signal in Alpha formats.
Procedure: A HTS of portions of the UCLA compound library was undertaken. The primary HTS was carried out at the MSSR facility at UCLA using CHO-7W cells. An initial screen of approximately 7000 compounds was performed using the NIH and NPW libraries, 3 plates from the targeted libraries (TAR), full LOPAC and NKIL libraries, and four plates from the Emerald/Synergy (ES) library. CHO-7W cells (5 K/well) were treated with 5 μM compounds for 48 h followed by collection of media and determination of sAPPα using an AlphaLISA.
Test [4] concerns RTN3 monomer. The experiment in a line: RTN3 monomer immunoblot (WB) in SH-SY5Y cells. (In general: Immunoblotting shows a protein as a band on a membrane.)
Test [5] relates to BAP31. The experiment in a line: Quantitative global proteomics (LC-MS/MS) of treated SH-SY5Y cells. The settings on record: treated vs vehicle (DMSO) SH-SY5Y cells. The format is cell-based, human.
Procedure: Tryptic peptides were subsequently labeled with isobaric tandem mass tags (ThermoFischer Scientific) to provide relative quantitation between samples, and then fractionated using high pH reverse-phase chromatography for increased proteome coverage. The multiplexed samples were analyzed by liquid chromatography tandem mass spectrometry (LC-MS/MS).
The test system of test [6] is BAP31. The experiment in a line: BAP31 immunoblot (WB) in SH-SY5Y cells. The format is cell-based, human. The settings on record: SH-SY5Y after treatment.
Test [7] deals with p-GSK3β (Ser 9). Conditions: Deng et al., 2015; used at 25 nM as positive control; cited from earlier work.
The test system of test [8] is sAPPα. The experiment in a line: Oral treatment of ApoE4:5xFAD mice, brain sAPPα. In kind it is in vivo. The settings on record: E4:FAD mice, orally 4 mg/kg for 18 days.
Test [9] relates to p-GSK3β. The experiment in a line: Oral treatment of ApoE4:5xFAD mice, brain p-GSK3β. In kind it is in vivo. Conditions: E4:FAD mice, orally 4 mg/kg for 18 days.
Test [10] deals with RTN3. The experiment in a line: Oral treatment of ApoE4:5xFAD mice, brain RTN3. The format is in vivo. The settings on record: E4:FAD mice, orally 4 mg/kg for 18 days.

Take `COc1cc(C(=O)OCCCN2CCCN(CCCOC(=O)c3cc(OC)c(OC)c(OC)c3)CC2)cc(OC)c1OC` (racemic) [DDL-402, Dilazep]: the “ratio (phospho-GSK3β/Actin) to (Total-GSK3β/Actin)” value in [1] (18 h) was “trend to increase in p-GSK3β”. Further, the “sAPPα levels after 24 h” value in test [2] was “significantly increased”.

Turning to `CC(Cc1ccccc1)(NC(=O)CN)c1ccccc1` (centres unmarked) [DDL-401, Remacemide], in test [3] (CHO cells stably expressing human APP, initial HTS), the “enhancement of sAPPα in CHO-7W cells” value was “enhancer of sAPPα”. Moreover, the “percent increase in sAPPα levels normalized to control in HTS” value in test [3] (CHO-7W cells 5 K/well, 5 μM compound, 48 h, AlphaLISA) was over 25%. Moreover, in [4] (SH-SY5Y, WB), the “concentration giving a modest increase in RTN3 monomer levels” value is at least 10 µM. Moreover, in test [2], the “sAPPα in SH-SY5Y cells” value was “significantly (p>0.01) increased; also recorded: increased sAPPα” and the “sAPPα levels after 24 h” value was “significantly increased”. For the same compound, in [2] (listed as Remacemide), the “sAPPα in SH-SY5Y cells” value was “sAPPα increase”. Moreover, the “time course of sAPPα in media” value in test [2] (SH-SY5Y 400,000/well, 5 μM, media collected every 2 h for 24 h, vs DMSO) was “time dependent increase in sAPPα”. The “levels of tryptic peptides corresponding to BAP31 (MS/MS)” value in test [5] was “increase in the levels of tryptic peptides”. The “BAP31 by WB” value in test [6] is listed as “no significant increase”.

As to “sAPPα: recombinant sAPPα (25 nM) used as a positive control for GSK3β phosphorylation”, in test [7], the “phosphorylation of GSK3β (positive control, literature)” value was “increase the phosphorylation of GSK3β”.

Consider `CN1[C@@H]2CC[C@H]1C[C@@H](OC(=O)c1c[nH]c3ccccc13)C2` [F03, Tropisetron], for which the “level of RTN3 monomer (~25 kD)” value in test [4] (SH-SY5Y 100 k/well, 5 uM, 12 h, vs DMSO or untreated) is given as “trended to increase”. For the same compound, the “phosphorylation of GSK3β” value in test [1] (12 h or 18 h) was “increases phosphorylation of GSK3β”. For the same compound, the sAPPα in brain result in [8] is recorded as “slight increase”. For the same compound, the p-GSK3β in brain result in test [9] is recorded as “bigger increase”. Besides, the “RTN3 levels in the brain” value in test [10] is listed as “slightly enhanced”.
